Experiment [1] concerns the target T1, hCB1 (Homo sapiens, UniProt P21554). The experiment in a line: hCB1 cAMP agonist assay (HEK-293 cells). Type of experiment: cell-based. To be noted: for EC50: cAMP agonist, HEK, 96-well, read-out: hCB1 EC50 (cAMP ag, nM, HEK (96-well)).
Experiment [2] addresses T1, hCB1. Briefly: hCB1 radioligand binding assay ([3H]-CP 55,940 displacement). As to conditions: hCB1 IC50 (CP displ, nM, HEK), HEK membranes. The essentials:
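Membranes from stable HEK-293 cells expressing recombinant hCB1 (2-10 μg protein) incubated 90 minutes at room temperature with 0.5 nM [3H]-CP 55,940 in 50 mM Tris-HCl pH 7.5, 5 mM MgCl2, 2.5 mM EDTA, 0.1% fatty acid free BSA. Filtration then scintillation counting; nonspecific binding with 1 μM unlabelled CP 55,940.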

The target of experiment [3] is T2, hCB2 (Homo sapiens, UniProt P34972). Briefly: hCB2 GTPγS agonist assay (HEK-293 membranes). Type of experiment: biochemical. The essentials:
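Membranes from HEK-293 cells transfected with human CB2 (5 μg) incubated with SPA beads, 0.1 nM [35S]GTPγS and 20 uM GDP in 50 mM HEPES pH 7.4, 100 mM NaCl, 5 mM MgCl2, 0.001% saponin. Incubation 90 min at room temperature. Agonist-stimulated binding read by scintillation counting.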

Experiment [4] addresses T2, hCB2. The experiment in a line: hCB2 radioligand binding assay ([3H]-CP 55,940 displacement). To be noted: hCB2 IC50 (CP displ, nM, HEK), HEK membranes. The essentials: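 Membranes from cells transfected with human CB2 cDNA (pcDNA3.1+), kept in 20 mM HEPES pH 7.4, MgCl2, EDTA, sucrose with protease inhibitors.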
Experiment [5] concerns the target T1, hCB1. Briefly: hCB1 GTPγS agonist assay (HEK-293 membranes). To be noted: for EC50: GTPγS agonist, HEK membranes, read-out: hCB1 EC50 (GTPyS ag, nM, HEK). Type of experiment: biochemical. From the text:
cDNA expression clones for human CB 1 (hCB1, Genbank Accession No. AY225225) and human CB2 (hCB2, Genbank Accession No. AY242132) expressed in vector pcDNA3.1+ were purchased from UMR cDNA Resource Center, Rolla, Mo. (Clone ID CNR01L000 for hCB1; CNR0200000 for hCB2).
Stable, HEK-293-derived cell lines that recombinantly express hCB1 or hCB2 were established. In brief, the clone hCB1 (CNR1L) or hCB2 (CNR2) was transfected into human embryonic kidney cells (HEK-293) using Lipofectamine 2000 (Gibco, Cat#11668-019) according to the manufacturer's protocol. Transfected clones were isolated by single colony purification and clones were screened for receptor expression using a whole cell, ^3H—CP 55,940 radioligand binding assay. HEK-293 stable cells were maintained in Dulbecco's modified Eagles medium (DMEM) containing 10% fetal bovine serum, 2 mM L-glutamine and 0.5 mg/mL G-418.
Membranes were isolated from transfected cells as follows. Monolayers of cultured cells were washed twice with phosphate-buffered saline (PBS). Cells were scraped into 20 mM HEPES, pH 7.4, 10 mM EDTA containing complete cocktail protease inhibitors (Roche, Catalog #11 697 498 001), and were homogenized by an electric-powered mechanical probe homogenizer (Omni GLH; probe G7-195S) for 40 seconds at 7000 rpm. Homogenates were centrifuged 10 minutes at 1000×g at 4° C. The supernatant was collected and was centrifuged for 1 hour at 40,000×g. The supernatant was then decanted and the resulting pellet was re-suspended in 20 mM HEPES, pH 7.4, 5 mM MgCl2, 1 mM EDTA, 10% sucrose with complete cocktail protease inhibitors. Protein concentration of membrane suspensions were measured by Bradford Protein Assay using bovine serum albumin as the standard (BioRad catalog #500-0006). Protein concentrations of membrane suspensions were adjusted with the final buffer in the range of 5 to 10 mg/mL and were stored at −80° C. until further use.
^35S GTPγS binding assays were performed by incubating recombinant cell membranes prepared above (5 μg) in the presence of scintillation proximity assay beads (SPA beads, Catalog #RPNQ0252 GE Healthcare, Buckinghamshire, England) in GTPγS binding buffer [50 mM HEPES (pH 7.4), 100 mM NaCl, 5 mM MgCl2, 0.001% saponin (Sigma catalog #S4521)] supplemented with 20 uM GDP (Sigma catalog #G7127) in the presence or absence of test compound. The reaction was carried out in 96-well microplates with 0.1 nM [^35S]GTPγS (specific activity=1250 Ci/mmol; Perkin Elmer catalog #NEG030X250UC) in a final volume of 100 μL. After a 90 min room temperature incubation, the reaction was analyzed using a scintillation counter (Perkin Elmer Microbeta instrument). Binding data were analyzed using GraphPad Prism.

Experiment [6] concerns the target T2, hCB2. Briefly: hCB2 cAMP agonist assay (HEK-293 cells). Type of experiment: cell-based. The essentials:
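HEK-293 cells stably expressing hCB2, treated 30 min at 37° C with compound in HBSS/10 mM HEPES/0.1% BSA alongside forskolin (90 uM in the 3× solution, not final).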

Each structure is given as a SMILES string. pEC50: −log10 of the molar value. Values joined by “and” are separate entries in the source; they are usually repeats but may differ in a detail not shown here. Equal values may be shown once.

T1 sequence (P21554 whole entry): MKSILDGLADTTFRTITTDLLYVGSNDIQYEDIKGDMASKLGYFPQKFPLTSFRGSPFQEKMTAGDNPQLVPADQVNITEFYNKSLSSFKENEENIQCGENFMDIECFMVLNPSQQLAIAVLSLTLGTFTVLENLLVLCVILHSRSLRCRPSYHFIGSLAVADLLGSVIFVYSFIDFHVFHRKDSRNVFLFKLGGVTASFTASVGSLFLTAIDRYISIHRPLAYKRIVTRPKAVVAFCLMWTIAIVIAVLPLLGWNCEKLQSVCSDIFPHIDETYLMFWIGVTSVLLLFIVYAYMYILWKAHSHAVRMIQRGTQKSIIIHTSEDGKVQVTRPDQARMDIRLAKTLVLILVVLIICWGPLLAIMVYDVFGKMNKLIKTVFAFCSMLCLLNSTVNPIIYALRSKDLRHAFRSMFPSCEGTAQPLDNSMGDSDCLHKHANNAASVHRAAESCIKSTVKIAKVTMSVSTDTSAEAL
T2 sequence (P34972 whole entry): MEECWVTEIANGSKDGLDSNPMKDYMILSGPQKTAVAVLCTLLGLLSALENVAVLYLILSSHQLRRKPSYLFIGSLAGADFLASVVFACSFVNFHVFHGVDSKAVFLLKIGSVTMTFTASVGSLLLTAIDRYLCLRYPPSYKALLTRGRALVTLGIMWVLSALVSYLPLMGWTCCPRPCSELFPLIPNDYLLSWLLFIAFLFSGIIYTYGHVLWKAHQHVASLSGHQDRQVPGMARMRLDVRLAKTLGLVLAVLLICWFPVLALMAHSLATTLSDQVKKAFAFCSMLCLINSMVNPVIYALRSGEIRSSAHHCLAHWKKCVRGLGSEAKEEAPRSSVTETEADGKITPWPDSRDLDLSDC

One may read the pEC50 as the EC50 on a negative log10 scale, so that one unit is a factor of ten. One may read the IC50 as the concentration that gives 50% inhibition. Consider `CCCn1cc(C(=O)c2cc3ccsc3n2CC)c2cccnc21` [Compound I-34], for which the pEC50 is 5.00 to 6.00 at hCB1 [1], over 7.00 on hCB2 [3], 6.00 to 7.00 at hCB1 [5] and over 7.00 on hCB2 [6]. The IC50 on hCB1 [2] is 1000 to 10000 nM; on hCB2 [4], under 100 nM.

The term EC50 denotes the concentration that produces a half-maximal response. For the compound `CCCn1c(C(=O)c2cn(CC)c3ccccc23)cc2ccsc21` [Compound I-42], the EC50 on hCB1 [1] and at hCB1 [5] was 100 to 1000 nM in each case. Besides, the IC50 at hCB1 [2] and on hCB2 [4] was under 100 nM throughout. In addition, the pEC50 on hCB2 [3] and on hCB2 [6] was over 7.00 throughout.

As to `CCn1c(C(=O)c2cn(CCCNS(C)(=O)=O)c3ccccc23)cc2ccsc21` [Compound I-28], the EC50 on hCB1 [1] was in the range of 100 to 1000 nM; on hCB1 [5], 1000 to 10000 nM. Further, the IC50 at hCB1 [2] is 100 to 1000 nM; on hCB2 [4], under 100 nM. Also, the pEC50 at hCB2 [3] and on hCB2 [6] was over 7.00 in each case.

As for `CCCn1cc(C(=O)c2cc3ccsc3n2CCC)c2ccccc21` [Compound I-62], the pEC50 at hCB1 [1] was over 7.00; at hCB2 [3], over 7.00; at hCB1 [5] it was 6.00 to 7.00; on hCB2 [6], over 7.00. Further, the IC50 at hCB1 [2] and on hCB2 [4] was under 100 nM in each case.

In the case of `CCCn1c(C(=O)c2cn(CC3CCOCC3)c3ccccc23)cc2ccsc21` [Compound I-41], the pEC50 on hCB1 [1], on hCB2 [3], at hCB1 [5] and on hCB2 [6] was over 7.00 each time. For the same compound, the IC50 on hCB1 [2] and at hCB2 [4] was under 100 nM throughout.

For `CCCn1c(C(=O)c2c(C)n(CCC3CCOCC3)c3ccccc23)cc2ccsc21` [Compound I-57], the pEC50 at hCB1 [1] is 6.00 to 7.00; at hCB2 [3] it was over 7.00; on hCB1 [5] it was 6.00 to 7.00; on hCB2 [6] it was over 7.00. The values for the IC50 at hCB1 [2] and on hCB2 [4] were 100 to 1000 nM and under 100 nM, respectively.

Consider `CCCCCn1c(C)c(C(=O)c2cc3ccsc3n2CCC)c2ccccc21` [Compound I-60], for which the pEC50 at hCB1 [1] is over 7.00; on hCB2 [3], over 7.00; on hCB1 [5], 6.00 to 7.00; on hCB2 [6], over 7.00. The IC50 on hCB1 [2] and at hCB2 [4] was under 100 nM each time.

Take `CCCn1c(C(=O)c2c(C)n(CC3CCOCC3)c3ccccc23)cc2ccsc21` [Compound I-66]: the pEC50 on hCB1 [1] is over 7.00; at hCB2 [3], over 7.00; on hCB1 [5], 6.00 to 7.00; on hCB2 [6], over 7.00. In addition, the IC50 on hCB1 [2] is 100 to 1000 nM; on hCB2 [4], under 100 nM.

For the compound `CCCn1cc(C(=O)c2cc3ccsc3n2CCC)c2cccnc21` [Compound I-45], the pEC50 at hCB1 [1] is 6.00 to 7.00; on hCB2 [3], over 7.00; on hCB1 [5] it was 6.00 to 7.00; on hCB2 [6], over 7.00. Further, the IC50 at hCB1 [2] is < 100 nM and 100 to 1000 nM; on hCB2 [4] it was under 100 nM.

(Values after patent publication US20130178453A1, “Cannabinoid Agonists” (priority 2010, published 2013).)
